Where no end group is shown, it is not given here. [ ]: non-standard residue; d: D form.
Legend:
[1] = test system: human red blood cells (hRBC); test: Hemolysis of human red blood cells; format: cell-based; settings: for % hemolysis at 50 μM peptide / % hemolysis at 100 μM: 30 min at 37° C.; for hemolytic activity (dose response): up to maximum concentration tested (50 μM)
Procedure: (ix) Hemolysis of human red blood cells. The peptides were tested for their hemolytic activities against human red blood cells (hRBC). Fresh hRBC with EDTA were rinsed 3 times with PBS (35 mM phosphate buffer/0.15 M NaCl, pH 7.3) by centrifugation for 10 min at 800 g and resuspended in PBS. Peptides dissolved in PBS were then added to 50 μL of a solution of the stock hRBC in PBS to reach a final volume of 100 μL (final erythrocyte concentration, 5% v/v). The resulting suspension was incubated under agitation for 30 min at 37° C. The samples were then centrifuged at 800 g for 10 min. Release of hemoglobin was monitored by measuring the absorbance of the supernatant at 540 nm. Controls for zero hemolysis (blank) and 100% hemolysis consisted of hRBC suspended in PBS and Triton 1%, respectively.

[2] = Membrane permeation, diffusion potential assay; settings: zwitterionic vesicles
Procedure: (xi) Membrane permeation induced by the peptides. Membrane permeation was assessed utilizing the diffusion potential assay (Loew et al., 1983; Sims et al., 1974) as previously described (Shai et al., 1991). In a typical experiment, in a glass tube, 4 μl of a liposomes suspension (final phospholipids concentration of 33 μM), in a K^+ containing buffer (50 mM K2 SO4, 25 mM HEPES-SO4^-2, pH 6.8), was diluted in 1 ml of an isotonic K^+ free buffer (50 mM Na2 SO4, 25 mM HEPES-SO4^-2, pH 6.8), and the fluorescent, potential-sensitive dye diS-C2 -5 was then added. Valinomycin (1 μl of 10^-7 M) was added to the suspension in order to slowly create a negative diffusion potential inside the vesicles, which led to a quenching of the dye's fluorescence. Once the fluorescence had stabilized, which took 3-10 minutes, peptides were added. The subsequent dissipation of the diffusion potential, as reflected by an increase in fluorescence, was monitored on a Perkin Elmer LS-50B spectrofluorometer, with the excitation set at 620 nm, the emission at 670 nm, and the gain adjusted to 100%. The percentage of fluorescence recovery, Ft, was defined as:
where I0 =the initial fluorescence, If =the total fluorescence observed before the addition of valinomycin, and It =the fluorescence observed after adding the peptide at time t.

[3] = phosphatidylglycerol/phosphatidylcholine (Beschiaschvili and Seelig, 1990); cited from earlier work
[4] = test system: Escherichia coli D21; test: Antibacterial activity (MIC), growth inhibition in 96-well plates; format: cell-based; settings: 100% inhibition of growth after 18-20 h at 37° C.
[5] = test system: Bacillus megaterium Bm11; test: as above; format: cell-based; settings: 100% inhibition of growth after 18-20 h at 37° C.
[6] = test system: Acinetobacter calcoaceticus Ac11; test: as above; format: cell-based; settings: 100% inhibition of growth after 18-20 h at 37° C.

With CC[C@H](C)[C@H](NC(=O)CN)C(=O)NCC(=O)N[C@@H](C)C(=O)N[C@H](C(=O)N[C@@H](CC(C)C)C(=O)N[C@@H](CCCCN)C(=O)N[C@H](C(=O)N[C@@H](CC(C)C)C(=O)N[C@H](C(=O)N[C@H](C(=O)NCC(=O)N[C@@H](CC(C)C)C(=O)N1CCC[C@H]1C(=O)N[C@@H](C)C(=O)N[C@@H](CC(C)C)C(=O)N[C@H](C(=O)N[C@@H](CO)C(=O)N[C@@H](Cc1c[nH]c2ccccc12)C(=O)N[C@H](C(=O)N[C@@H](CCCCN)C(=O)N[C@@H](CCCNC(=N)N)C(=O)N[C@@H](CCCCN)C(=O)N[C@@H](CCCNC(=N)N)C(=O)N[C@@H](CCC(N)=O)C(=O)N[C@@H](CCC(N)=O)C(N)=O)[C@@H](C)CC)[C@@H](C)CC)[C@@H](C)O)[C@@H](C)O)C(C)C)C(C)C [Melittin, reference compound] the “% hemolysis at 50 μM peptide” value [1] was 100%, the “hemolytic activity (dose response)” value [1] was “the most hemolytic” and the “membrane permeating activity with PC vesicles” value [2] was “highly active”. The “surface partition coefficient reported for melittin” value [3] was 4.5±0.6×10^4 M^-1.
For “(Lys-Leu-Leu-Leu-Lys-Leu-Lys-Leu-Lys-Leu-Leu-Lys-Cys-NH2)5 Lys-Leu-Leu-Leu-Lys-Leu-Leu-Leu-Lys-Leu-Leu-Lys-NH2 [Peptide 93]”, the “Minimal Inhibitory Concentration E. coli (D21)” value [4] was 0.1 µM, the “Minimal Inhibitory Concentration B. megaterium (Bm11)” value [5] was 0.02 µM and the “% hemolysis at 100 μM” value [1] was 0%.
For CC(C)C[C@H](NC(=O)[C@H](CC(C)C)NC(=O)[C@@H](CC(C)C)NC(=O)[C@@H](CC(C)C)NC(=O)[C@H](CC(C)C)NC(=O)[C@@H](N)CCCCN)C(=O)N[C@@H](CCCCN)C(=O)N[C@H](CC(C)C)C(=O)N[C@@H](CC(C)C)C(=O)N[C@H](CC(C)C)C(=O)N[C@@H](CC(C)C)C(=O)N[C@@H](CCCCN)C(N)=O [Peptide 22], the “hemolytic activity (in words)” value [1] was “considerable hemolytic activity”.
With “Lys-Gly-Phe-Phe-Ala-Leu-Ile-Pro-Lys-Ile-Ile-Ser-Ser-Pro-Leu-Phe-Lys-Thr-Leu-Leu-Ser-Ala-Val-(NH--CH2 --CH2 --NH2)2 (KGFFALI[dP]KIISSPLFKTLLSAV; not fully specified (C-terminus); printed as Lys-Gly-Phe-Phe-Ala-Leu-Ile-Pro-Lys-Ile-Ile-Ser-Ser-Pro-Leu-Phe-Lys-Thr-Leu-Leu-Ser-Ala-Val-(NH—$CH_2$—$CH_2$—$NH_2$)$_2$; also: D-Pro7 (position 7 is Ile), C-terminus written (NH--CH2--CH2--NH2)2) [Peptide 4]” the “Minimal Inhibitory Concentration E. coli (D21)” value [4] was 7.5 µM, the “Minimal Inhibitory Concentration A. calcoaceticus (Ac11)” value [6] was 7.5 µM and the “Minimal Inhibitory Concentration B. megaterium (Bm11)” value [5] was 1.5 µM. For the same compound, the “% hemolysis at 50 μM peptide” value [1] was 0%.
For “Gly-Phe-Phe-Ala-Leu-Ile-Pro-Lys-Ile-Ile-Ser-Ser-Pro-Leu-Phe-Lys-Thr-Leu-Leu-Ser-Ala-Val-(NH--CH2 --CH2 --NH2)2 (GFFALI[dP]KIISSPLFKTLLSAV; not fully specified (C-terminus); printed as Gly-Phe-Phe-Ala-Leu-Ile-Pro-Lys-Ile-Ile-Ser-Ser-Pro-Leu-Phe-Lys-Thr-Leu-Leu-Ser-Ala-Val-(NH—$CH_2$—$CH_2$—$NH_2$)$_2$; also: C-terminus written (NH--CH2--CH2--NH2)2) [Peptide 2]”, the “Minimal Inhibitory Concentration E. coli (D21)” value [4] was 12.5 µM, the “Minimal Inhibitory Concentration A. calcoaceticus (Ac11)” value [6] was 12.5 µM and the “Minimal Inhibitory Concentration B. megaterium (Bm11)” value [5] was 2.5 µM. The “% hemolysis at 50 μM peptide” value [1] was 0%.
For CC(C)C[C@H](NC(=O)[C@H](CCCCN)NC(=O)[C@@H](CC(C)C)NC(=O)[C@@H](CC(C)C)NC(=O)[C@H](CC(C)C)NC(=O)[C@@H](N)CCCCN)C(=O)N[C@@H](CCCCN)C(=O)N[C@H](CC(C)C)C(=O)N[C@@H](CCCCN)C(=O)N[C@H](CC(C)C)C(=O)N[C@@H](CC(C)C)C(=O)N[C@@H](CCCCN)C(N)=O [Peptide 24], the “hemolytic activity (in words)” value [1] was “devoid of hemolytic activity”.
For “(Lys-Leu-Leu-Leu-Lys-Leu-Leu-Leu-Lys-Leu-Leu-Lys-Cys-NH2)5 Lys-Leu-Leu-Leu-Lys-Leu-Leu-Leu-Lys-Leu-Leu-Lys-NH2 [Peptide 92]”, the “Minimal Inhibitory Concentration E. coli (D21)” value [4] was 0.2 µM, the “Minimal Inhibitory Concentration B. megaterium (Bm11)” value [5] was 0.05 µM and the “% hemolysis at 100 μM” value [1] was 0%.
In the case of KLLLKLLK [Peptide 29], the “Minimal Inhibitory Concentration E. coli (D21)” value [4] is reported as 3 µM, the “Minimal Inhibitory Concentration B. megaterium (Bm11)” value [5] is reported as 3 µM and the “% hemolysis at 100 μM” value [1] is reported as 0%.
With CC[C@H](C)[C@H](NC(=O)[C@H](CCCCN)NC(=O)[C@@H]1CCCN1C(=O)[C@@H](NC(=O)[C@H](CC(C)C)NC(=O)[C@H](C)NC(=O)[C@H](Cc1ccccc1)NC(=O)[C@H](Cc1ccccc1)NC(=O)CN)[C@@H](C)CC)C(=O)N[C@H](C(=O)N[C@@H](CO)C(=O)N[C@@H](CO)C(=O)N1CCC[C@H]1C(=O)N[C@@H](CC(C)C)C(=O)N[C@@H](Cc1ccccc1)C(=O)N[C@@H](CCCCN)C(=O)N[C@H](C(=O)N[C@@H](CC(C)C)C(=O)N[C@@H](CC(C)C)C(=O)N[C@@H](CO)C(=O)N[C@@H](C)C(=O)N[C@H](C(=O)NCC(=O)N[C@@H](CO)C(=O)N[C@@H](C)C(=O)N[C@@H](CC(C)C)C(=O)N[C@@H](CO)C(=O)N[C@@H](CO)C(=O)N[C@@H](CO)C(=O)NCC(=O)NCC(=O)N[C@@H](CCC(N)=O)C(=O)N[C@@H](CCC(=O)NCCN)C(=O)NCCN)C(C)C)[C@@H](C)O)[C@@H](C)CC [Peptide 8, TApar] the “hemolytic activity (dose response)” value [1] was “the most hemolytic”.
In the case of CC(C)C[C@H](NC(=O)[C@H](CCCCN)NC(=O)[C@@H](CC(C)C)NC(=O)[C@@H](CC(C)C)NC(=O)[C@H](CC(C)C)NC(=O)[C@@H](N)CCCCN)C(=O)N[C@@H](CC(C)C)C(=O)N[C@H](CC(C)C)C(=O)N[C@@H](CCCCN)C(=O)N[C@H](CC(C)C)C(=O)N[C@@H](CC(C)C)C(=O)N[C@@H](CCCCN)C(N)=O [Peptide 23], the “hemolytic activity (in words)” value [1] is reported as “devoid of hemolytic activity”.
In the case of CC[C@@H](C)[C@@H](NC(=O)[C@H](CC(C)C)NC(=O)[C@H](C)NC(=O)[C@@H]1CCCN1C(=O)[C@H](CC(C)C)NC(=O)CNC(=O)[C@@H](NC(=O)[C@@H](NC(=O)[C@H](CC(C)C)NC(=O)[C@H](NC(=O)[C@H](CCCCN)NC(=O)[C@H](CC(C)C)NC(=O)[C@H](NC(=O)[C@H](C)NC(=O)CNC(=O)[C@@H](NC(=O)CN)[C@@H](C)CC)C(C)C)C(C)C)[C@@H](C)O)[C@@H](C)O)C(=O)N[C@@H](CO)C(=O)N[C@@H](Cc1c[nH]c2ccccc12)C(=O)N[C@H](C(=O)N[C@H](CCCCN)C(=O)N[C@@H](CCCNC(=N)N)C(=O)N[C@@H](CCCCN)C(=O)N[C@@H](CCCNC(=N)N)C(=O)N[C@@H](CCC(N)=O)C(=O)N[C@@H](CCC(N)=O)C(=O)O)[C@@H](C)CC [Peptide 19], the “hemolytic activity (dose response)” value [1] is reported as “practically devoid of hemolytic activity”.
For “Lys-Lys-Gly-Phe-Phe-Ala-Leu-lle-Er-Lys-Ile-Ile-Ser-Ser-Pro-Leu-Phe-Lys-Thr- Leu-Leu-Ser-Ala-Val-(NH--CH2 --CH2 --NH2)2 [Peptide 5]”, the “Minimal Inhibitory Concentration E. coli (D21)” value [4] was 3.5 µM, the “Minimal Inhibitory Concentration A. calcoaceticus (Ac11)” value [6] was 3.5 µM and the “Minimal Inhibitory Concentration B. megaterium (Bm11)” value [5] was 0.75 µM. The “% hemolysis at 50 μM peptide” value [1] was 0%.
With CC[C@H](C)[C@H](NC(=O)[C@H](CCCCN)NC(=O)[C@H]1CCCN1C(=O)[C@@H](NC(=O)[C@H](CC(C)C)NC(=O)[C@H](C)NC(=O)[C@H](Cc1ccccc1)NC(=O)[C@H](Cc1ccccc1)NC(=O)CN)[C@@H](C)CC)C(=O)N[C@H](C(=O)N[C@@H](CO)C(=O)N[C@@H](CO)C(=O)N1CCC[C@H]1C(=O)N[C@@H](CC(C)C)C(=O)N[C@@H](Cc1ccccc1)C(=O)N[C@@H](CCCCN)C(=O)N[C@H](C(=O)N[C@H](CC(C)C)C(=O)N[C@H](CC(C)C)C(=O)N[C@@H](CO)C(=O)N[C@@H](C)C(=O)N[C@H](C(=O)NCC(=O)N[C@@H](CO)C(=O)N[C@@H](C)C(=O)N[C@@H](CC(C)C)C(=O)N[C@@H](CO)C(=O)N[C@@H](CO)C(=O)N[C@@H](CO)C(=O)NCC(=O)NCC(=O)N[C@@H](CCC(N)=O)C(=O)N[C@@H](CCC(=O)NCCN)C(=O)NCCN)C(C)C)[C@@H](C)O)[C@@H](C)CC [Peptide 1] the “hemolytic activity (dose response)” value [1] was “practically devoid of hemolytic activity”.
With KLLLLK [Peptide 28] the “Minimal Inhibitory Concentration E. coli (D21)” value [4] was 200 µM, the “Minimal Inhibitory Concentration B. megaterium (Bm11)” value [5] was 50 µM and the “% hemolysis at 100 μM” value [1] was 0%.
